No end group written: not given here.
How the values were obtained:
[1] = test system: hMSC; experiment: 2D traction force microscope stem cell migration test; type: cell-based, human; details: 24 h imaging; for effect on stem cell mobility (conclusion of the test): hMSC
[2] = test system: 인간유래 중간엽줄기세포(hMSC); experiment: 3D spheroid stem cell migration test (branch sprouting in collagen matrix); type: cell-based, human; details: peptide in DMEM 10uM / 100uM, 37℃, 16 h; for extent of stem cell branches extending from 3D spheroid (Fig. 2): compared with EGF group or DMEM only

In the case of NTKVGYIGEREQYRDLK-NH2 [EGP2], the “stem cell migration speed (Fig. 7 and 8)” value ([1]; hMSC on collagen-coated PA gel with fluorescent beads, compared among EGF, EGP 2, JEP 4 media) is reported as “속도가 가장 빠른 것으로 나타났다”, the “effect on stem cell mobility (conclusion of the test)” value [1] is reported as “줄기세포의 이동성을 증진시키는 효과가 있음” and the “length of stem cell branches extending from 3D spheroid, quantified (Fig. 3)” value [2] is reported as “줄기세포 가지가 상대적으로 긴 것으로 나타났다”. The “extent of stem cell branches extending from 3D spheroid (Fig. 2)” value [2] was “줄기세포 가지가 가장 많이 뻗어나간 것을 확인”.
In the case of YCLHDGVSMYIEALDKYACN [JEP4], the “effect on stem cell mobility (conclusion of the test)” value [1] is reported as “줄기세포의 이동성을 증진시키는 효과가 있음”, the “length of stem cell branches extending from 3D spheroid, quantified (Fig. 3)” value [2] is reported as “줄기세포 가지가 상대적으로 긴 것으로 나타났다” and the “extent of stem cell branches extending from 3D spheroid (Fig. 2)” value [2] is reported as “줄기세포 가지가 가장 많이 뻗어나간 것을 확인”.
